Measurements from patent publication US9309263B2, “Fused multi-cyclic sulfone compounds as inhibitors of beta-secretase and methods of use thereof” (AMGEN INC., priority 2013, dated 2016).
Where two headings read alike, the source gives them in different places.

Key:
[1] = molecular target: Beta Secretase enzyme (BACE) (Homo sapiens, UniProt P56817); experiment: In vitro enzymatic BACE FRET assay; format: biochemical; settings: read-out: BACE1 FRET assay IC50
Outline: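 Cleavage of a quenched 50 nM FRET peptide substrate, read as fluorescence (excitation 488 nm, […]) after 1 h and Tris quench to neutrality. Buffer: 0.05 M acetate pH 4.2 with 10% DMSO and 100 uM genapol. Inhibitor dilutions were pre-incubated 1 h with 0.2 nM enzyme.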

Cathepsin D (Cat D) = Cathepsin D (Cat D) (Homo sapiens, UniProt P07339); experiment: In vitro enzymatic Cathepsin D (Cat D) FRET assay; format: biochemical
Outline: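 FRET peptide substrate (20 nM) is cleaved by CHO-derived recombinant enzyme (9 nM) for 1 h after a 1 h inhibitor pre-incubation, at pH 3.5 in citrate buffer with 5 mM CHAPS and 10% DMSO. Tris addition ends the reaction; fluorescence measured at 500 nm excitation, 580 nm emission.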

[2] = test system: Aβ 40 in conditioned medium of cells stably expressing Amyloid Precursor Protein (APP); experiment: In vitro BACE cell-based assay (Aβ 40 sandwich ELISA); settings: Homo sapiens, HEK293
Outline: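 Aβ40 in conditioned medium measured by pAb40/biotin-6E10 sandwich ELISA with time-resolved europium fluorescence, after 24 h exposure of stable APP cells to compounds (10-point series starting 100 μM or 10 μM; 0.1% DMSO). IC50 fitted from percent of control against concentration.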

[3] = average IC50, in vitro enzymatic BACE FRET assay
[4] = Cathepsin D FRET assay, read-out: CatD IC50
[5] = average IC50, HEK cell assay, Aβ 40 readout
[6] = text summary referring to data in Table 2

Beta Secretase enzyme (BACE), sequence (P56817 46-501): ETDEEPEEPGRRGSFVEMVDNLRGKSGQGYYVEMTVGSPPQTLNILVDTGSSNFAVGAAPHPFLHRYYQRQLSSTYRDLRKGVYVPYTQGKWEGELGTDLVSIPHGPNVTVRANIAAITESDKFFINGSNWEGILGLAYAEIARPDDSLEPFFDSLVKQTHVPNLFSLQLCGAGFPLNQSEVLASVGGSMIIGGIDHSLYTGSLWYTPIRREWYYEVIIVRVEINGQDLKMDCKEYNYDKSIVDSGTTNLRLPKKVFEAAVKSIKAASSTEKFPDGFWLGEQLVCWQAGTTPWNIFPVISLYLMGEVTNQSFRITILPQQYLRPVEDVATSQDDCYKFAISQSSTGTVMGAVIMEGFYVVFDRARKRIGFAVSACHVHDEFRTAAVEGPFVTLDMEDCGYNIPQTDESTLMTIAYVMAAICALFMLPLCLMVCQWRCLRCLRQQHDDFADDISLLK
Cathepsin D (Cat D), sequence (P07339 65-412, species assumed): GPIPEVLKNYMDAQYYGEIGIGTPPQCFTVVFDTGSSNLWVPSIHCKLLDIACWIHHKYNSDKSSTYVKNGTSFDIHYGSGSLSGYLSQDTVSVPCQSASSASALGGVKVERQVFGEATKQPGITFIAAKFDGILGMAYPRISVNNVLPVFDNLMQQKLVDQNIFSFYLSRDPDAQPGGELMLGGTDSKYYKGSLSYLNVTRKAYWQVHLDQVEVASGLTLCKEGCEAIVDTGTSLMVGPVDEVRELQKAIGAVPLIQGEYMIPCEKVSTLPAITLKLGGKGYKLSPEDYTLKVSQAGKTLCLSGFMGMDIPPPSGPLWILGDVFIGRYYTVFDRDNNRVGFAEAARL

| IC50 ([1]; average IC50) | IC50 (Cathepsin D (Cat D); read-out: CatD IC50) | IC50 ([2]; HEK cell, average IC50) | IC50 [1, 3] | IC50 (Cathepsin D (Cat D); [4]) | IC50 [2, 5] | IC50 ([2]; HEK cells, average IC50) | IC50 (Cathepsin D (Cat D); [6]) | Compound |
| --- | --- | --- | --- | --- | --- | --- | --- | --- |
|  |  |  | 12 nM | 710 µM | 93 nM |  |  | CC1(C)C(N)=N[C@]2(CF)c3cc(Nc4nccc5cc(Cl)cnc45)ccc3OCC[C@H]2S1(=O)=O [Example 148, (4aR,11bS)-N^~10^~-(3-chloro-1,7-naphthyridin-8-yl)-11b-(fluoromethyl)-3,3-dimethyl-4a,5,6,11b-tetrahydro-3H-[1]benzoxepino[4,5-b][1,4]thiazine-2,10-diamine 4,4-dioxide] |
| 16 nM | 1240 µM |  |  |  |  | 64 nM |  | Cc1cc(OCC(F)(F)F)cnc1C(=O)Nc1ccc2c(c1)[C@@]1(C)N=C(N)C(C)(C)S(=O)(=O)[C@@H]1CCO2 [Example 187, N-((4aR,11bR)-2-amino-3,3,11b-trimethyl-4,4-dioxido-4a,5,6,11b-tetrahydro-3H-[1]benzoxepino[4,5-b][1,4]thiazin-10-yl)-3-methyl-5-(2,2,2-trifluoroethoxy)-2-pyridinecarboxamide] |
| 10 nM | 586 µM |  |  |  |  | 28 nM |  | Cc1nc(OCC2CC2)cnc1C(=O)Nc1ccc2c(c1)[C@@]1(C)N=C(N)C(C)(C)S(=O)(=O)[C@@H]1CCO2 [Example 178, N-((4aR,11bR)-2-amino-3,3,11b-trimethyl-4,4-dioxido-4a,5,6,11b-tetrahydro-3H-benzo[6,7]oxepino[4,5-b][1,4]thiazin-10-yl)-5-(cyclopropylmethoxy)-3-methylpyrazine-2-carboxamide] |
|  |  |  | 2 nM | 2070 µM | 6 nM |  |  | Cc1cc(C#N)cnc1C(=O)Nc1ccc2c(c1)[C@@]1(CF)N=C(N)C(C)(C)S(=O)(=O)[C@H]1CCO2 [Example 153, N-((4aS,11bS)-2-amino-11b-(fluoromethyl)-3,3-dimethyl-4,4-dioxido-4a,5,6,11b-tetrahydro-3H-[1]benzoxepino[4,5-b][1,4]thiazin-10-yl)-5-cyano-3-methyl-2-pyridinecarboxamide] |
|  |  |  | 1 nM | 292 µM | 12 nM |  |  | Cc1cc(Cl)cnc1C(=O)Nc1ccc2c(c1)[C@@]1(C)N=C(N)C(C)(C)S(=O)(=O)[C@@H]1CCS2 [Example 114, N-((4aR,11bR)-2-amino-3,3,11b-trimethyl-4,4-dioxido-4a,5,6,11b-tetrahydro-3H-[1]benzothiepino[4,5-b][1,4]thiazin-10-yl)-5-chloro-3-methyl-2-pyridinecarboxamide] |
|  |  |  | 5 nM | 443 µM | 5 nM |  |  | C[C@H]1C[C@@H]2[C@](C)(N=C(N)C(C)(C)S2(=O)=O)c2cc(Nc3nccc4cc(C(F)(F)F)cnc34)ccc2O1 [Example 131, (4aR,6S,11bR)-2-amino-3,3,6,11b-tetramethyl-10-((3-(trifluoromethyl)-1,7-naphthyridin-8-yl)amino)-4a,5,6,11b-tetrahydro-3H-benzo[6,7]oxepino[4,5-b][1,4]thiazine 4,4-dioxide] |
| 2 nM | 434 µM |  |  |  |  | 1 nM |  | Cc1cc(C#N)cnc1C(=O)Nc1ccc2c(c1)[C@@]1(C)N=C(N)C(C)(C)S(=O)(=O)[C@@H]1CCO2 [Example 192, N-((4aR,11bR)-2-amino-3,3,11b-trimethyl-4,4-dioxido-4a,5,6,11b-tetrahydro-3H-[1]benzoxepino[4,5-b][1,4]thiazin-10-yl)-5-cyano-3-methyl-2-pyridinecarboxamide] |
| 8 nM | 403 µM |  |  |  |  | 4 nM |  | Cc1cc(Cl)cnc1C(=O)Nc1ccc2c(c1)[C@@]1(C)N=C(N)C(C)(C)S(=O)(=O)[C@H]1CC(C)(C)O2 [Example 184, N-((4aS,11bR)-2-amino-3,3,6,6,11b-pentamethyl-4,4-dioxido-4a,5,6,11b-tetrahydro-3H-[1]benzoxepino[4,5-b][1,4]thiazin-10-yl)-5-chloro-3-methyl-2-pyridinecarboxamide] |
| 3 nM | > 400 µM |  |  |  |  | 14 nM |  | CC#CCOc1cnc2c(Nc3ccc4c(c3)C3(C)N=C(N)C(C)(C)S(=O)(=O)C3CCO4)nccc2c1 [Example 182, (4aR,11bR)-N^~10^~-(3-(2-butyn-1-yloxy)-1,7-naphthyridin-8-yl)-3,3,11b-trimethyl-4a,5,6,11b-tetrahydro-3H-[1]benzoxepino[4,5-b][1,4]thiazine-2,10-diamine 4,4-dioxide] |
| 18 nM | 314 µM |  |  |  |  | 111 nM |  | COc1cnc2c(Nc3ccc4c(c3)[C@@]3(C)N=C(N)C(C)(C)S(=O)(=O)[C@@H]3CCO4)ncc(F)c2c1 [Example 177, (4aR,11bR)-N^~10^~-(5-fluoro-3-methoxy-1,7-naphthyridin-8-yl)-3,3,11b-trimethyl-4a,5,6,11b-tetrahydro-3H-[1]benzoxepino[4,5-b][1,4]thiazine-2,10-diamine 4,4-dioxide] |

Second part, the molecule before the results:

| Compound | IC50 ([1]; average IC50) | IC50 (Cathepsin D (Cat D); read-out: CatD IC50) | IC50 ([2]; HEK cell, average IC50) | IC50 [1, 3] | IC50 (Cathepsin D (Cat D); [4]) | IC50 [2, 5] | IC50 ([2]; HEK cells, average IC50) | IC50 (Cathepsin D (Cat D); [6]) |
| --- | --- | --- | --- | --- | --- | --- | --- | --- |
| Cc1cc(C(F)F)cnc1C(=O)Nc1ccc2c(c1)[C@@]1(C)N=C(N)C(C)(C)S(=O)(=O)[C@@H]1CCC2 [Example 40, N-((4aR,11bR)-2-amino-3,3,11b-trimethyl-4,4-dioxido-3,4a,5,6,7,11b-hexahydrobenzo[3,4]cyclohepta[1,2-b][1,4]thiazin-10-yl)-5-(difluoromethyl)-3-methyl-2-pyridinecarboxamide] | 35 nM | > 400 µM | 15 nM |  |  |  |  |  |
| Cc1cc(C(F)(F)F)cnc1C(=O)Nc1ccc2c(c1)[C@@]1(C)N=C(N)C(C)(C)S(=O)(=O)[C@@H]1CCC2 [Example 45, N-((4aR,11bR)-2-amino-3,3,11b-trimethyl-4,4-dioxido-3,4a,5,6,7,11b-hexahydrobenzo[3,4]cyclohepta[1,2-b][1,4]thiazin-10-yl)-3-methyl-5-(trifluoromethyl)-2-pyridinecarboxamide] | 18 nM | 1460 µM | 6 nM |  |  |  |  | > 1200 µM |
| Cc1cc(Cl)cnc1C(=O)Nc1ccc2c(c1)[C@@]1(C)N=C(N)C(C)(C)S(=O)(=O)[C@H]1CCO2 [Example 6b, N-((4aS,11bR)-2-amino-3,3,11b-trimethyl-4,4-dioxido-4a,5,6,11b-tetrahydro-3H-benzo[6,7]oxepino[4,5-b][1,4]thiazin-10-yl)-5-chloro-3-methylpicolinamide] | 3 nM | > 100 µM | 4 nM |  |  |  |  |  |
| COc1cnc(C(=O)Nc2ccc3c(c2)[C@@]2(C)N=C(N)C(C)(C)S(=O)(=O)[C@@]2(F)CCO3)cn1 [Example 89, N-((4aS,11bR)-2-amino-4a-fluoro-3,3,11b-trimethyl-4,4-dioxido-4a,5,6,11b-tetrahydro-3H-[1]benzoxepino[4,5-b][1,4]thiazin-10-yl)-5-methoxy-2-pyrazinecarboxamide] |  |  |  | 28 nM | 400 µM | 50 nM |  |  |
| CC#CCOc1cnc(C(=O)Nc2ccc3c(c2)[C@@]2(C)N=C(N)C(C)(C)S(=O)(=O)[C@@H]2CCC3)cn1 [Example 50, N-((4aR,11bR)-2-amino-3,3,11b-trimethyl-4,4-dioxido-3,4a,5,6,7,11b-hexahydrobenzo[3,4]cyclohepta[1,2-b][1,4]thiazin-10-yl)-5-(2-butyn-1-yloxy)-2-pyrazinecarboxamide] | 0.7 nM | 120 µM | 0.2 nM |  |  |  |  |  |
| C[C@H]1C[C@@H]2[C@](C)(N=C(N)C(C)(C)S2(=O)=O)c2cc(NC(=O)c3ncc(C(F)(F)F)cc3Cl)ccc2O1 [Example 73, N-((4aR,6S,11bR)-2-amino-3,3,6,11b-tetramethyl-4,4-dioxido-4a,5,6,11b-tetrahydro-3H-[1]benzoxepino[4,5-b][1,4]thiazin-10-yl)-3-chloro-5-(trifluoromethyl)-2-pyridinecarboxamide] | 11 nM | 1390 µM | 4 nM |  |  |  |  | > 1200 µM |
| Cc1cc(Cl)cnc1C(=O)Nc1ccc2c(c1)[C@@]1(C)N=C(N)C(C)(C)S(=O)(=O)[C@@]1(F)CCO2 [Example 87, N-((4aS,11bR)-2-amino-4a-fluoro-3,3,11b-trimethyl-4,4-dioxido-4a,5,6,11b-tetrahydro-3H-[1]benzoxepino[4,5-b][1,4]thiazin-10-yl)-5-chloro-3-methyl-2-pyridinecarboxamide] |  |  |  | 2 nM | 279 µM | 8 nM |  |  |
| COc1cnc(C(=O)Nc2ccc3c(c2)[C@@]2(CF)N=C(N)C(C)(C)S(=O)(=O)[C@@H]2C[C@H](C)O3)cn1 [Example 107, N-((4aR,6S,11bS)-2-amino-11b-(fluoromethyl)-3,3,6-trimethyl-4,4-dioxido-4a,5,6,11b-tetrahydro-3H-[1]benzoxepino[4,5-b][1,4]thiazin-10-yl)-5-methoxy-2-pyrazinecarboxamide] |  |  |  | 95 nM | > 400 µM | 110 nM |  |  |
| C[C@H]1C[C@@H]2[C@](C)(N=C(N)C(C)(C)S2(=O)=O)c2cc(NC(=O)c3cnc(Cl)cn3)ccc2O1 [Example 75, N-((4aR,6S,11bR)-2-amino-3,3,6,11b-tetramethyl-4,4-dioxido-4a,5,6,11b-tetrahydro-3H-[1]benzoxepino[4,5-b][1,4]thiazin-10-yl)-5-chloro-2-pyrazinecarboxamide] | 4 nM | 217 µM | 61 nM |  |  |  |  |  |
| C[C@]12N=C(N)C3(CCC3)S(=O)(=O)[C@@H]1CCOc1ncc(Nc3nccc4cc(Cl)cnc34)cc12 [Example 61] | 18 nM | 680 µM | 125 nM |  |  |  |  |  |
